Consider 5 compounds from patent publication EP4438596A1, “DIAMINOPYRIMIDINE DERIVATIVES AS HDAC AND DHFR DUAL-TARGETING INHIBITORS AND USE THEREOF IN PREVENTING AND TREATING MALARIA” (Université de Lille, priority 2023, dated 2024).

Like-named read-outs stand apart in the source and are kept apart here. Bounds are passed on as bounds.

Assay [1] has as its system P. berghei ANKA parasites. Briefly: Peters 4-day suppressive test, oral efficacy in P. berghei-infected mice. The note with it: for activity in vivo against Plasmodium berghei / number of mice showing blood parasites / parasitemia (mean ± sd): Balb/C mice; for parasites in treated mice, follow-up: until the end of the experiments; for parasite clearance after oral administration: 10 mg/kg. In kind it is in vivo, Plasmodium berghei. On the procedure:
Compounds powder was dissolved in DMSO and sonicated for 10 min. Appropriate volume of 50%W/v HPβCD was added dropwise under gentle swirling. After 10 min sonication, DPBS was added dropwise under gentle swirling and the mixture was sonicated again for 10 min. After checking the pH (5.5 - 7), the solution was filtered (0.22µm) and conserved at room temperature for max 2 days. Final concentration of compounds was 2.5 mg/mL, 1 mg/mL or 0.1 mg/mL for mice treatment with 25 mg/kg, 10 mg/kg or 1mg/kg doses.
10 weeks-old Balb/C male mice were purchased from Janvier Labs.
P. berghei ANKA parasites stabilates conserved in liquid nitrogen were thawed and injected intraperitoneally (ip) into 2-3 mice (10^6 infected red blood cells (RBC) / mouse). When parasitemia reached 3-5%, mice were bled and groups of six BALB/c male mice were infected with 10^6 P. berghei ANKA parasites (day 0), and treated per os (p.o.) twice a day on days 0, 1, 2 and 3. […] On day 4 post infection (p.i.), the peripheral blood parasitemia of all mice was evaluated via microscopic examination of Giemsa-stained thin blood smears. Parasitemia was then followed for two weeks.

In assay [2] the test system is multidrug-resistant P. falciparum line Dd2. Kind of assay: Plasmodium falciparum growth inhibition assay (SYBR Green I, flow cytometry), multidrug-resistant line. Conditions: line resistant to CQ, PYR and mefloquine, mean ± SD. Type of assay: cell-based. The procedure:
(§1) Plates were incubated under standard P. falciparum culture conditions for 48 h. […] Fixed parasitized red blood cells (RBC) were stored at 4 °C in the dark until flow cytometry analysis. Parasite growth was assessed by flow cytometry on a BD FACS Cantoll (BD Biosciences) or a Attune™ NxT Flow Cytometer (Invitrogen). Cell doublets were excluded from the analysis using a forward scatter (FSC)-width versus FSC-area dot plot. Infected and uninfected erythrocytes were gated on the basis of their FSC and side scatter (SSC) signals. Fluorescence analysis (Green fluorescence FITC) was performed using BD FACSDiva software (BD Biosciences) on a total of 200,000 acquired events. […] Fluorescence of non-infected RBC was adjusted to plot between 10° and 10^2. Results are expressed as the percentage of growth inhibition.
(§2) All IC50 values were calculated using log-linear interpolation (www.antimalarial-icestimator.net), with mean values (± SD) determined over at least two independent experiments.
For orientation: Flow cytometry measures light scatter and fluorescence of single cells or particles in a stream.

In assay [3] the test system is P. falciparum 3D7-infected erythrocytes. Kind of assay: Plasmodium falciparum growth inhibition assay (SYBR Green I, flow cytometry), drug-sensitive strain. Type of assay: cell-based. The note with it: Plasmodium falciparum, 3D7, Erythrocyte, 48 h incubation. On the procedure: as §1, §2
Another assay relates to HEK293 cells. Kind of assay: Cytotoxicity on HEK293 cells (Alamar Blue). In kind it is cell-based, Human. Conditions: ratio of the minimum inhibitory concentration of HEK293 cells (50 µM) to the IC50 of Pf3D7. The procedure:
Cells were seeded out at 1.5 × 10^3 cells per well in a 96-well cell culture plate (TPP, Switzerland).
After 24 h, Alamar Blue reagent (Invitrogen, CA) was added according to the manufacturer's instructions and incubated again for 21 h before samples were analyzed.
Background: The colour change of resazurin is a common sign of viable cells or microbes.

Where [4] appears, read: Experiment 3, 1 mg/kg p.o. twice a day on days 0-3, day 4 p.i.
Where [5] appears, read: Experiment 3, 1 mg/kg p.o. twice a day on days 0-3, day 5 p.i.
Setting [6] is: Experiment 3, 1 mg/kg p.o. twice a day on days 0-3, day 6 p.i.
Setting [7] is: Experiment 3, 1 mg/kg p.o. twice a day on days 0-3, day 7 p.i.
[8] abbreviates: Experiment 3, 1 mg/kg p.o. twice a day on days 0-3, day 8 p.i.
[9] abbreviates: Experiment 3, 1 mg/kg p.o. twice a day on days 0-3, day 10 p.i.
Setting [10] is: Experiments 1 and 2, 10 mg/kg p.o. twice a day on days 0-3, day 4 p.i.
The mark [11] stands for this setting: Experiments 1 and 2, 10 mg/kg p.o. twice a day on days 0-3.
Setting [12] is: Plasmodium falciparum, DD2, 48 h, n ≥ 2, read-out: PfDd2 IC50.
The mark [13] stands for this setting: mean ± SD, n ≥ 2, read-out: Pf3D7 IC50.
Setting [14] is: Experiment 2 (Fig. 2), 10mg/kg orally twice a day on days 0,1,2,3.

Turning to `CCc1nc(N)nc(N)c1OCCCOc1ccccc1CCC(=O)NO.Cl` [1·HCl, 3-(2-[3-(2,4-Diamino-6-ethylpyrimidin-5-yloxy)propoxy]phenyl)-N-hydroxypropanamide hydrochloride], the “activity in vivo against Plasmodium berghei” value (“activity in vivo” below) in assay [1] (Experiment 1 (Fig. 1), 10mg/kg and 25mg/kg orally twice a day on days 0,1,2,3) was “active in vivo”. The “parasites in treated mice” value in assay [1] (setting [4]) and in assay [1] (setting [10]) was “undetectable” each time. In addition, the “number of mice showing blood parasites” value is reported as 0/6 in assay [1] (setting [4]); 1/6 in assay [1] (setting [5]); 1/6 in assay [1] (setting [6]); 1/6 in assay [1] (setting [7]); 1/6 in assay [1] (setting [8]); 1/6 in assay [1] (setting [9]). Besides, the “parasitemia (mean ± sd)” value in assay [1] (setting [4]) is recorded as 0%; in assay [1] (setting [5]), 0,07 ± 0,16%; in assay [1] (setting [6]), 0,15 ± 0,37%; in assay [1] (setting [7]), 0,31 ± 0,76%; in assay [1] (setting [8]) it was 1,31 ± 3,21%; in assay [1] (setting [9]), 0,7 ± 1,72%. The “parasites in treated mice, follow-up” value in assay [1] (setting [11]) is recorded as “remained undetectable”. In addition, the “parasite clearance after oral administration” value (from here on “parasite clearance”) in assay [1] is given as “achieved parasite clearance”. For the same compound, the 50% inhibitory concentration (IC50) (commonly the concentration that gives 50% inhibition) was 19.8 ± 0.9 nM in assay [2] (setting [12]), 0.17 ± 0.018 nM in assay [3] (setting [13]) and < 0.2 nM in assay [3] (read-out: IC50 (Pf3D7)).
As for `CCc1nc(N)nc(N)c1OCCOc1ccccc1CCC(=O)NO.Cl` [2·HCl, 3-(2-[2-(2,4-Diamino-6-ethylpyrimidin-5-yloxy)ethoxy]phenyl)-N-hydroxypropanamide hydrochloride], the “Selectivity Index HEK293 / Pf3D7” value in the assay with HEK293 cells was > 4.4E+06. In addition, the IC50 in assay [3] (setting [13]) turned out to be 11.4 ± 7.9 nM.
In the case of `CCc1nc(N)nc(N)c1OCCCOc1cccc(C(=O)NO)c1.Cl` [8·HCl, 3-[3-(2,4-Diamino-6-ethylpyrimidin-5-yloxy)propoxy]-N-hydroxybenzamide hydrochloride], in assay [1] (setting [14]), the “activity in vivo” value is given as “active in vivo”. For the same compound, the “ranking of activity against P. berghei infection” value in assay [1] (Experiment 3, 1 mg/kg p.o. twice a day on days 0-3) is recorded as “most active”. Also, the “parasites in treated mice” value in assay [1] (setting [4]) and in assay [1] (setting [10]) was “undetectable” in each case. Moreover, the “number of mice showing blood parasites” value was 0/6 in assay [1] (setting [4]); 0/6 in assay [1] (setting [5]); 2/6 in assay [1] (setting [6]); 2/6 in assay [1] (setting [7]); 3/6 in assay [1] (setting [8]); 4/6 in assay [1] (setting [9]). Also, the “parasitemia (mean ± sd)” value in assay [1] (setting [4]) is recorded as 0%; in assay [1] (setting [5]), 0%; in assay [1] (setting [6]), 0,08 ± 0,13%; in assay [1] (setting [7]), 0,32 ± 0,49%; in assay [1] (setting [8]) it was 1,37 ± 2,07%; in assay [1] (setting [9]) it was 2,41 ± 2,84%. Further, the “parasites in treated mice, follow-up” value in assay [1] (setting [11]) is on record as “remained undetectable”. Besides, the “parasite clearance” value in assay [1] is listed as “achieved parasite clearance”. Further, the half-inhibitory concentration (IC50) in assay [2] (setting [12]) came out at 138 nM; in assay [2] (48 h, n ≥ 2, listed as 8, hydrochloride, read-out: PfDd2 IC50), 138 ± 25.4 nM; in assay [3] (setting [13]) it was 0.845 ± 0.108 nM.
Consider `CCc1nc(N)nc(N)c1OCCCOc1ccccc1/C=C/C(=O)NO.Cl` [13·HCl, (E)-3-{2-[3-(2,4-Diamino-6-ethylpyrimidin-5-yloxy)propoxy]phenyl}-N-hydroxyacrylamide hydrochloride], for which the “activity in vivo” value in assay [1] (setting [14]) is “active in vivo”. Moreover, the “number of mice showing blood parasites” value in assay [1] (setting [4]) is 2/6; in assay [1] (setting [5]) it was 3/6; in assay [1] (setting [6]) it was 4/6; in assay [1] (setting [7]), 5/6; in assay [1] (setting [8]), 5/6; in assay [1] (setting [9]) it was 5/5. Also, the “parasitemia (mean ± sd)” value in assay [1] (Experiment 3, 1 mg/kg p.o. twice a day on days 0-3, day 4 p.i., hydrochloride, 1 mg/kg) is recorded as 0,12 ± 0,18%; in assay [1] (Experiment 3, 1 mg/kg p.o. twice a day on days 0-3, day 4 p.i., listed as 13, hydrochloride, 1 mg/kg) it was 0.12%; in assay [1] (setting [5]) it was 0,55 ± 0,83%; in assay [1] (setting [6]) it was 2,05 ± 2,37%; in assay [1] (setting [7]), 2,39 ± 2,22%; in assay [1] (setting [8]) it was 3,94 ± 3,06%. The “parasitemia (mean ± sd)” value in assay [1] (setting [9]) was 6,02 ± 2,66%. Further, the “parasites in treated mice” value in assay [1] (setting [10]) is “undetectable”. In addition, the “parasites in treated mice, follow-up” value in assay [1] (setting [11]) is “remained undetectable”. In assay [1], the “parasite clearance” value is “achieved parasite clearance”. Also, the IC50 in assay [2] (setting [12]) is 11.1 ± 7.2 nM; in assay [3] (setting [13]), 0.081 ± 0.043 nM; in assay [3] (read-out: IC50 (Pf3D7)), < 0.1 nM.
`CCc1nc(N)nc(N)c1OCCCOc1cccc(C(=O)NOCc2ccccc2)c1` [Compound 12, N-(Benzyloxy)-3-[3-(2,4-diamino-6-ethylpyrimidin-5-yloxy)propoxy]benzamide]: in the assay on HEK293 cells, the “Selectivity Index HEK293 / Pf3D7” value is > 1.0E+07. Further, the IC50 in assay [3] (setting [13]) worked out at 4.84 ± 1.05 nM.
